This note sets out measurements from ChEMBL document CHEMBL1153618, “Discovery of potential new InhA direct inhibitors based on pharmacophore and 3D-QSAR analysis followed by in silico screening” (Eur J Med Chem, 2009).

Usually IC50 stands for the concentration needed to halve the response being measured. Read a low IC50 as inhibition by little substance.

This assay has as its target T1, Enoyl-[acyl-carrier-protein] reductase [NADH] (Mycobacterium tuberculosis, UniProt P9WGR1).
T1 sequence (P9WGR1 whole entry): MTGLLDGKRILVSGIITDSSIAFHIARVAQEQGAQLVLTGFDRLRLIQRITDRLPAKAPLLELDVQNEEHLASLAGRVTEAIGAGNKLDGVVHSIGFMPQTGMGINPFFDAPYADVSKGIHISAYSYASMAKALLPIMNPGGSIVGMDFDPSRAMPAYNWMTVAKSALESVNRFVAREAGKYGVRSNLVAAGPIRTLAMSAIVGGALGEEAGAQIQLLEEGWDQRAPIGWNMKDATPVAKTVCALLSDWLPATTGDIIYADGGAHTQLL
Put plainly: Inhibition of Mycobacterium tuberculosis InhA.
With `O=C(Nc1cc(Cl)ccc1Cl)c1ccc(Cl)c([N+](=O)[O-])c1`, the IC50 is 20 µM.
Then `COc1ccc(/C=C2/SC(N3CCC(C)CC3)=NC2=O)cc1OC`, with 10.7 µM; and `COc1ccc(OC)c(/C=N/NC2=CS(=O)(=O)c3ccccc32)c1`, with 5.13 µM.
The same measure for `COc1ccc(C(=O)Nc2cc(Cl)cc(Cl)c2)cc1[N+](=O)[O-]`: 7.08 µM; for `COc1ccc(/C=C2/SC(N3CCCC3)=NC2=O)cc1OC`: 7.24 µM.
Then `Cc1ccc(C(=O)Nc2ccc(Cl)cc2Cl)cc1[N+](=O)[O-]`, with 8.71 µM; and `COc1ccc(/C=C2/SC(N3CCCCC3)=NC2=O)cc1OC`, with 11.5 µM.
For `COc1ccc(/C=C2\SC(N3CCCCCC3)NC2=O)cc1OC` (stereo not given), the IC50 amounted to 11 µM. The IC50 values of the last two molecules are within 1.5-fold of each other.
The same measure for `O=C(Nc1cc(Cl)c(Cl)cc1Cl)c1ccccc1[N+](=O)[O-]`: 12 µM.
The same measure for `O=C(Nc1ccc(Cl)c(Cl)c1)c1ccc(Cl)c([N+](=O)[O-])c1`: 52.5 µM; for `CCN(CC)c1ccc(/C=C2/SC(N3CCCCC3)=NC2=O)cc1`: 6.17 µM; for `CCN(CC)c1ccc(NC(=O)c2ccccc2[N+](=O)[O-])cc1`: 4.37 µM.
Then `CCOc1ccc(/C=C2/SC(c3ccccc3)=NC2=O)cc1C`, with 10 µM; and `CCOC(=O)C1=C(C)N/C(=C/c2cc(OC)ccc2OC)C1=O`, with 3.63 µM.
The molecule `Cc1ccc(NC(=O)c2ccccc2[N+](=O)[O-])c(C)c1` showed an IC50 of 10.5 µM.
In turn, `Cc1ccc(NC(=O)c2sc3ccccc3c2Cl)cc1[N+](=O)[O-]` showed an IC50 of 2.14 µM.
Then `COc1ccc(C(=O)Nc2cc(Cl)ccc2Cl)cc1[N+](=O)[O-]`, with 13.8 µM.
On to `CCN(CC)c1ccc(/C=C2/N=C(c3ccccc3)OC2=O)cc1`, for which 3.31 µM corresponded to half-maximal inhibition (IC50).
Then `COC(=O)c1c(NC(=O)c2ccccc2[N+](=O)[O-])sc2c1CCC2`, with 1.82 µM.
For `O=C(Nc1ccc(Cl)cc1Cl)c1ccccc1[N+](=O)[O-]`, it took 20 µM to reach half-maximal inhibition (IC50).
Then `Cc1ccc(OC(=O)c2ccccc2[N+](=O)[O-])c(Br)c1`, with 9.55 µM.
On to `O=C(Nc1cc(Cl)cc(Cl)c1)c1ccccc1[N+](=O)[O-]`, for which the IC50 turned out to be 6.17 µM.
The same measure for `O=[N+]([O-])c1cc(/N=C/c2ccc(Cl)cc2Cl)ccc1Cl`: 4.68 µM; for `COc1ccc(Cl)cc1NC(=O)c1ccc(Cl)c([N+](=O)[O-])c1`: 4.07 µM; for `COc1cc(Cl)cc(/C=C2/SC(c3ccccc3)=NC2=O)c1O`: 10.5 µM.
On to `COc1cc(Cl)ccc1NC(=O)c1ccc(C)c([N+](=O)[O-])c1`, for which the IC50 is 5.01 µM.
The same measure for `COc1cc(NC(=O)c2ccc(C)cc2[N+](=O)[O-])cc(OC)c1`: 1.35 µM; for `COc1ccc(Cl)cc1NC(=O)c1ccc(OC)c([N+](=O)[O-])c1`: 5.01 µM.
Turning to `Cc1cc(Cl)ccc1OCC(=O)Nc1cccc([N+](=O)[O-])c1C`, half-maximal inhibition (IC50) required 3.47 µM.
The same measure for `O=C1N=C(Nc2cc(Cl)cc(Cl)c2)S/C1=C/c1ccco1`: 17.8 µM.
